Experimental data from patent US20150203526A1, “NOVEL 19-NOR-STEROIDS AND THEIR USE FOR TREATING PROGESTERONE- DEPENDENT CONDITIONS” (REPROS THERAPEUTICS INC., priority 2010, published 2015).
Converted amounts (≈) assume the structure as drawn. Read-outs that look alike come from different tables or passages of the source.

Legend:
[1] = Thermodynamic solubility (solid shaken in solvent at 37° C., filtrate by LC/UV); type: physicochemical; conditions: thermodynamic from solid
Protocol: Briefly, 300 ul of solvent (ethanol, 0.1 M HCl or distilled H2O) were added to 14-16 mg of the solid compound (5 parallel measurements per sample, per solvent, mean concentrations 93-107 mM). The mixtures were shaken at 37° C. for 24 and 72 hours. Concentrations of the filtrates were determined by liquid chromatography with UV detector (LC/UV) with 3-point calibration.
Crystal form was checked by X-ray powder diffraction (XRPD) after recovering the slurry at 24 and 72 hours. […] The exact cause of this observed phenomenon is not known.

[2] = Pharmacokinetic studies on clinical trial subjects after oral CDB-4124; type: in vivo, human; conditions: oral CDB-4124, 12.5 mg vs 50 mg
Protocol: The maximum concentrations of CDB-4124 and its mono-demethylated metabolite (CDB-4453) for the 12.5 mg dose were 25% of the 50 mg dose. All liver toxicities resolved in those women that returned for safety follow-ups, including those subjects that developed liver-associated serious adverse effects (SAEs).
Pharmacokinetic studies performed on participating subjects detected a high Cmax and a Tmax at 1-2 hours following administration. […] Metabolism of CDB-4124 by the liver provides the opportunity for liver damage and greatly reduces the concentration of the antiprogestin before it reaches the systemic circulation. Thus, alternative routes of administration of antiprogestins that avoid first pass metabolism such as, without limitation, intravenous, intramuscular, and sublingual, should allow antiprogestins to be absorbed directly into the systemic circulation and thereby provide a method for treating progestone-dependent conditions while avoiding liver toxicity. Administration routes which avoid first pass metabolism may also require less drug per dose to achieve the same therapeutic benefit relative to oral administration.

[3] = Oral vs vaginal pharmacokinetics in beagles (25 mg); type: in vivo
Protocol: FIG. 1 illustrates a comparison of the Cmax (peak serum concentration) and area under the curve (AUC) following oral and vaginal administration of CDB-4124 or CDB-4453 at a 25 mg dose in beagles.
Beagles were administered 25 mg of CDB-4124 or CDB-4453 (the monodemethylated metabolite of CDB-4124) formulated as either a micronized powder or a vaginal suppository. […] Moreover, systemic exposure of the drug is much lower when administered locally (compare AUC for CDB-4124 and CDB-4453 when administered vaginally vs. orally).

[4] = organic solvent or mixture, ethanol, read-out: Thermodynamic solubility, Ethanol, Mean
[5] = simulated gastric fluid, 0.1M HCl, read-out: Thermodynamic solubility, 0.1M HCl, Mean
[6] = distilled water, read-out: Thermodynamic solubility, Distilled water, Mean
[7] = distilled water, read-out: Thermodynamic solubility, distilled water, Mean

SMILES	solubility thermodynamic at 24 h [1, 4] [µM]	solubility thermodynamic at 72 h [1, 4] [µM]	solubility thermodynamic at 24 h [1, 5] [µM]	solubility thermodynamic at 72 h [1, 5] [µM]	solubility thermodynamic at 24 h [1, 6] [µM]	solubility thermodynamic at 72 h [1, 7] [µM]	Maximum concentration for the 12.5 mg dose relative to the 50 mg dose [2] [%]	Metabolism after peak plasma concentration ([3]; oral micronized powder)	Metabolism ([3]; vaginal suppository)	Peak plasma concentrations (Cmax) ([3]; vaginal suppository)	Systemic exposure (AUC), local vs oral ([3]; vaginal vs oral)
CC(=O)OCC(=O)[C@@]1(OC(C)=O)CC[C@H]2[C@@H]3CCC4=CC(=O)CCC4=C3[C@@H](c3ccc(C(C)=O)cc3)C[C@@]21C [CDB-4241, 21-acetoxy-17α-acetoxy-11β-(4-acetylphenyl)-19-norpregna-4,9-diene-3,20-dione]	26300 (≈ 14000 µg/mL)	21600 (≈ 11500 µg/mL)	3.21 (≈ 1.71 µg/mL)	3.9 (≈ 2.08 µg/mL)	3.08 (≈ 1.64 µg/mL)	3.05 (≈ 1.62 µg/mL)					
CNc1ccc([C@H]2C[C@@]3(C)[C@@H](CC[C@]3(OC(C)=O)C(=O)COC)[C@@H]3CCC4=CC(=O)CCC4=C32)cc1 [CDB-4453]							25	rapidly metabolized	metabolized slowly	relatively low	much lower
CC(=O)O[C@]1(C(C)=O)CC[C@H]2[C@@H]3CCC4=CC(=O)CCC4=C3[C@@H](c3ccc(C(C)=O)cc3)C[C@@]21C [REP-4510, 17α-acetoxy-11β-(4-acetylphenyl)-19-norpregna-4,9-dien-3,20-dione]	3300 (≈ 1570 µg/mL)	2900 (≈ 1380 µg/mL)	0.5 (≈ 0.237 µg/mL)	0.45 (≈ 0.214 µg/mL)	0.52 (≈ 0.247 µg/mL)	0.44 (≈ 0.209 µg/mL)					
